The values below come from the NIST ThermoML archive (doi:10.1016/j.jct.2017.11.017).

The nature of the series: activity coefficient (dimensionless); of the first substance listed, at infinite dilution; xn = mol fraction of the nth substance listed. The settings on record: 101.33 kPa, Liquid, Chromatography, x1 = 0.

The structures appear in SMILES notation. ± gives the expanded uncertainty stated by the source.

With `CCC(C)O` (stereo not given) [butan-2-ol] + C[n+]1ccn(CCCO)c1.N#CN=C=[N-], the activity coefficient is, setting by setting: (318.15 K) 2.74 ± 0.19; (328.15 K) 2.72 ± 0.19; (338.15 K) 2.72 ± 0.19; (348.15 K) 2.72 ± 0.19; (358.15 K) 2.7 ± 0.18; (368.15 K) 2.71 ± 0.18.
With `CCCC=O` [butanal] + C[N+]1(CCCO)CCOCC1.N#C[N-]C#N, the activity coefficient turned out to be 4.26 ± 0.29 (318.15 K); 4.49 ± 0.31 (328.15 K); 4.74 ± 0.32 (338.15 K); 4.97 ± 0.34 (348.15 K); 5.19 ± 0.35 (358.15 K); 5.38 ± 0.37 (368.15 K).
For the compound `CCCC=O` [butanal] + C[n+]1ccn(CCCO)c1.N#CN=C=[N-], the activity coefficient was 2.68 ± 0.18 (318.15 K); 2.92 ± 0.2 (328.15 K); 3.19 ± 0.22 (338.15 K); 3.43 ± 0.23 (348.15 K); 3.72 ± 0.25 (358.15 K); 3.95 ± 0.27 (368.15 K).
For `C1CCCCCC1` [cycloheptane] + C[N+]1(CCCO)CCOCC1.N#C[N-]C#N, the activity coefficient by setting is: (308.15 K) 391 ± 27; (318.15 K) 341 ± 23; (328.15 K) 297 ± 20; (338.15 K) 260 ± 18; (348.15 K) 230 ± 16; (358.15 K) 206 ± 14. Moreover, the activity coefficient (368.15 K) amounted to 185 ± 13.
In the case of `C1CCCCCC1` [cycloheptane] + C[n+]1ccn(CCCO)c1.N#CN=C=[N-], the activity coefficient was 152 ± 10 (298.15 K); 139 ± 10 (308.15 K); 128 ± 9 (318.15 K); 119 ± 8 (328.15 K); 111 ± 8 (338.15 K); 104 ± 7 (348.15 K). Besides, the activity coefficient (358.15 K) amounted to 97.8 ± 6.7.
As to `C1CCCCC1` [cyclohexane] + C[N+]1(CCCO)CCOCC1.N#C[N-]C#N, the activity coefficient by setting is: (308.15 K) 381 ± 26; (318.15 K) 319 ± 22; (328.15 K) 260 ± 18; (338.15 K) 219 ± 15; (348.15 K) 184 ± 13; (358.15 K) 159 ± 11. Further, where the note is “368.15 K”, the activity coefficient was 138 ± 9.
On to `C1CCCCC1` [cyclohexane] + C[n+]1ccn(CCCO)c1.N#CN=C=[N-], for which the activity coefficient came to 115 ± 8 (298.15 K); 105 ± 7 (308.15 K); 97.9 ± 6.7 (318.15 K); 91.1 ± 6.2 (328.15 K); 85.5 ± 5.9 (338.15 K); 80.4 ± 5.5 (348.15 K). Also, the activity coefficient (358.15 K) was 76.6 ± 5.2.
For the compound `C1=CCCCC1` [cyclohexene] + C[N+]1(CCCO)CCOCC1.N#C[N-]C#N, the activity coefficient was determined as 121 ± 8 (298.15 K), 97 ± 6.7 (308.15 K), 79.1 ± 5.4 (318.15 K) and 65.3 ± 4.5 (328.15 K).
`C1=CCCCC1` [cyclohexene] + C[n+]1ccn(CCCO)c1.N#CN=C=[N-]: the activity coefficient by setting is: (298.15 K) 40.7 ± 2.8; (308.15 K) 38.2 ± 2.6; (318.15 K) 36.1 ± 2.5; (328.15 K) 34.5 ± 2.4; (338.15 K) 32.7 ± 2.2; (348.15 K) 31.4 ± 2.1. In addition, the activity coefficient (358.15 K) came out at 30 ± 2.1.
As for `C1CCCCCCC1` [cyclooctane] + C[N+]1(CCCO)CCOCC1.N#C[N-]C#N, the activity coefficient was 571 ± 39 (308.15 K); 478 ± 33 (318.15 K); 408 ± 28 (328.15 K); 345 ± 24 (338.15 K); 298 ± 20 (348.15 K); 260 ± 18 (358.15 K). Further, the activity coefficient (368.15 K) is 229 ± 16.
Take `C1CCCCCCC1` [cyclooctane] + C[n+]1ccn(CCCO)c1.N#CN=C=[N-]: the activity coefficient was 216 ± 15 (298.15 K); 198 ± 14 (308.15 K); 181 ± 12 (318.15 K); 165 ± 11 (328.15 K); 153 ± 11 (338.15 K); 143 ± 10 (348.15 K). In addition, the activity coefficient (358.15 K) stood at 137 ± 9.
Consider `C1CCCC1` [cyclopentane] + C[n+]1ccn(CCCO)c1.N#CN=C=[N-], for which the activity coefficient (298.15 K) stood at 69.3 ± 4.7, the activity coefficient (308.15 K) was determined as 63.7 ± 4.4, the activity coefficient (318.15 K) was determined as 58.7 ± 4 and the activity coefficient (328.15 K) was determined as 54.5 ± 3.7.
As to `CCCCCCCCCC` [decane] + C[N+]1(CCCO)CCOCC1.N#C[N-]C#N, the activity coefficient runs as follows: (308.15 K) 2530 ± 180; (318.15 K) 2220 ± 150; (328.15 K) 1980 ± 140; (338.15 K) 1770 ± 120; (348.15 K) 1590 ± 110; (358.15 K) 1430 ± 99. Also, the activity coefficient (368.15 K) was determined as 1310 ± 90.
Turning to `CCCCCCCCCC` [decane] + C[n+]1ccn(CCCO)c1.N#CN=C=[N-], the activity coefficient (298.15 K) was 1870 ± 130; the activity coefficient (308.15 K) is 1680 ± 120; the activity coefficient (318.15 K) worked out at 1530 ± 110; the activity coefficient (328.15 K) amounted to 1380 ± 95; the activity coefficient (338.15 K) turned out to be 1270 ± 88; the activity coefficient (348.15 K) amounted to 1170 ± 81. Under “358.15 K”, the activity coefficient was 1070 ± 74.
For the compound `CCOCC` [diethyl ether] + C[N+]1(CCCO)CCOCC1.N#C[N-]C#N, the activity coefficient by setting is: (298.15 K) 59.3 ± 4.1; (308.15 K) 51.3 ± 3.5; (318.15 K) 44.7 ± 3.1; (328.15 K) 39.2 ± 2.7; (338.15 K) 35 ± 2.4.
Regarding `CCOCC` [diethyl ether] + C[n+]1ccn(CCCO)c1.N#CN=C=[N-], the activity coefficient turned out to be 20.3 ± 1.4 (318.15 K); 20.3 ± 1.4 (328.15 K); 20.5 ± 1.4 (338.15 K); 20.6 ± 1.4 (348.15 K); 20.7 ± 1.4 (358.15 K); 20.8 ± 1.4 (368.15 K).
For `CC(C)OC(C)C` [diisopropyl ether] + C[N+]1(CCCO)CCOCC1.N#C[N-]C#N, the activity coefficient came to 393 ± 27 (298.15 K), 306 ± 21 (308.15 K) and 244 ± 17 (318.15 K).
Take `CC(C)OC(C)C` [diisopropyl ether] + C[n+]1ccn(CCCO)c1.N#CN=C=[N-]: the activity coefficient is, setting by setting: (318.15 K) 96 ± 6.6; (328.15 K) 92.7 ± 6.4; (338.15 K) 90.6 ± 6.2; (348.15 K) 88 ± 6; (358.15 K) 86.5 ± 5.9; (368.15 K) 84.3 ± 5.8.
Take `CCCOCCC` [dipropyl ether] + C[N+]1(CCCO)CCOCC1.N#C[N-]C#N: the activity coefficient stood at 218 ± 15 (308.15 K); 202 ± 14 (318.15 K); 189 ± 13 (328.15 K); 176 ± 12 (338.15 K); 166 ± 11 (348.15 K); 157 ± 11 (358.15 K). The activity coefficient (368.15 K) came to 148 ± 10.
Regarding `CCCOCCC` [dipropyl ether] + C[n+]1ccn(CCCO)c1.N#CN=C=[N-], the activity coefficient runs as follows: (318.15 K) 82.3 ± 5.6; (328.15 K) 79.9 ± 5.5; (338.15 K) 77.7 ± 5.3; (348.15 K) 75.8 ± 5.2; (358.15 K) 74.4 ± 5.1; (368.15 K) 72.5 ± 5.
As to `CCO` [ethanol] + C[N+]1(CCCO)CCOCC1.N#C[N-]C#N, the activity coefficient was 1.71 ± 0.11 (318.15 K); 1.66 ± 0.11 (328.15 K); 1.61 ± 0.11 (338.15 K); 1.57 ± 0.1 (348.15 K); 1.54 ± 0.1 (358.15 K); 1.51 ± 0.1 (368.15 K).
Regarding `CCO` [ethanol] + C[n+]1ccn(CCCO)c1.N#CN=C=[N-], the activity coefficient is, setting by setting: (318.15 K) 1.17 ± 0.07; (328.15 K) 1.17 ± 0.07; (338.15 K) 1.18 ± 0.08; (348.15 K) 1.19 ± 0.08; (358.15 K) 1.2 ± 0.08; (368.15 K) 1.2 ± 0.08.
For the compound `CCOC(C)=O` [ethyl acetate] + C[N+]1(CCCO)CCOCC1.N#C[N-]C#N, the activity coefficient is, setting by setting: (318.15 K) 9.71 ± 0.66; (328.15 K) 9.78 ± 0.67; (338.15 K) 9.83 ± 0.67; (348.15 K) 9.91 ± 0.68; (358.15 K) 10 ± 0.7; (368.15 K) 10.1 ± 0.7.
